Test: Contact angle on coated gold
Type: physicochemical
Conditions: molecule alone at 10^−3M, soaking 30 minutes
Protocol: Degrease the parts by washing in a solvent (acetone or IPA) under ultrasound for 5 minutes then dry the parts under a stream of hot air.
Deposit • Place the part or parts in a container with an adapted shape • Cover the part or parts with coating solution (thiol, BP or BP/thiol-PFPE mixture), • Incubate between 5 minutes and 360 minutes, • Eliminate the supernatant—remove the part, • The part is drip dried (centrifugation).
Dehydration—Rinsing • The part which received the deposit is placed in an oven at 120° C. for a period ranging from 6 to 15 h (only for rubies and silicon), • The part is brought back to room temperature then immersed in IPA under ultrasound for 2 minutes, • The part is dried under a stream of hot air. […]
The lipophobic effect was evaluated by measuring the contact angles of a test oil having surface tension of 33 mN/m on different surfaces.
According to the deposit procedure described in paragraph 3, the materials were treated by the mixture of the thiol molecule I.3. with the BP molecule II.1. dissolved in IPA. The contact angles were measured before and after treatment of the surface. […]
The properties of thiol and bisphosphonate molecules in isolation were measured on the surfaces of steel and gold-plated substrates using solutions at 10^−3 M and in isopropanol in accordance with the protocol described in example 3 above, with a soaking time of 5 minutes.

O=C(NCCS)C(F)(F)C(F)(F)C(F)(F)C(F)(F)C(F)(F)C(F)(F)C(F)(F)F [I.5]
contact angle of the gold-plated brass part with the test oil (solvent IPA): 67.6 ± 3.6°
contact angle of the gold-plated brass part with the test oil (solvent MMCC (Biosane T212)): 49.5 ± 2.5°
